Measured values published in PubChem BioAssay AID2305 (GlaxoSmithKline (GSK), 2010).

What follows are compounds tested on P. falciparum 3D7 growth, pLDH absorbance (assay: blood-stage malaria parasite growth potency – strain 3D7, dose response (AID 2305)).

In order of falling IC50:
1. c1ccc(CN2CCC(NCc3cccc(-c4cncc5ccccc45)c3)CC2)cc1  1.36 µM
2. C[C@H](CNc1ccnc(Nc2ccc3[nH]c(=O)[nH]c3c2)n1)c1ccccc1  1.31 µM
3. c1ccc(CCNCc2ccc(-c3ccc(CNCc4ccc5c(c4)OCO5)cc3)nc2)cc1  1.25 µM
4. C[C@@H]1CN(c2cccc3c2nc(-c2cncc(C#N)c2)n3CCNCc2ccccc2)C[C@H](C)O1  1.22 µM
5. Cc1cc(Nc2ncc3c(n2)N(C2CCC2)CC3)ccc1N1CCN(C)CC1  1.19 µM
6. Cc1ccc(NC(=O)c2cc([N+](=O)[O-])ccc2NCc2cccnc2)cc1Cl  1.12 µM
7. CC(C)c1sc(N2CCN(C)CC2)nc1C(=O)NCCc1ccc(Cl)c(Cl)c1  1.05 µM
8. CN1CCC(c2csc3ccc(NC(=O)Nc4ccc(-c5ccncc5)c5ccccc45)cc23)CC1  1.02 µM
9. Cc1cc(-c2cccc(CNC3CCN(C)CC3)c2)ccc1S(=O)(=O)NCCN1CCCC1  0.98 µM
10. O=C(c1cc(C(=O)NCc2ccc(Cl)cc2)c(=O)n(Cc2ccc(Cl)cc2)c1)c1cc(F)ccc1O  0.95 µM
11. Cc1cc2ccc(/C=C/C(=O)NC3CCC(CCN4CCc5ccc(C#N)cc5CC4)CC3)cc2[nH]1 (stereo unspecified)  0.94 µM
12. [O-]c1n[n+](C2CCCCC2)no1  0.93 µM
13. COc1ccc2c(OC)c(CNCCCCCCNCc3ccc4cc(OC)ccc4c3OC)ccc2c1  0.92 µM
14. COc1ccc2nccc(N3CCC(NCCNCc4ccc5c(n4)NC(=O)CO5)C3)c2n1 (stereo unspecified)  0.86 µM
15. O=C(Nc1ccc(Cl)cc1)c1ccc(S(=O)(=O)NCC2CCN(CC3CCCCC3)CC2)cc1  0.86 µM
16. O=C(/C=C/c1ccc(Cl)c(Cl)c1)NCCCCCN1CCC(CCNC(=O)c2snnc2-c2ccccc2)CC1  0.82 µM
17. CCN(CC)CCN(Cc1ccc(-c2ccc(C(F)(F)F)cc2)cc1)C(=O)Cn1c(CCc2cccc(C#N)c2)nc(=O)c2ccccc21  0.77 µM
18. CCOc1cc(C)c(C2CCN(CCCCNC(=O)c3ccc(NC(=O)c4ccc(Cl)cc4)cc3)CC2)cc1C  0.74 µM
19. CCN(CC)CC(O)Cc1c2ccc([N+](=O)[O-])cc2nc2cc(OC)c(OC)cc12 (stereo unspecified)  0.74 µM
20. CN(C(=O)Cc1ccc(Cl)c(Cl)c1)C1CCN(CCCCCNC(=O)/C=C/c2ccc(Cl)c(Cl)c2)CC1  0.74 µM
21. Cc1cc(NN=Cc2cccc([N+](=O)[O-])c2)c2ccccc2n1  0.73 µM
22. O=C(CCc1cnc[nH]1)Nc1ccc(-c2ccc(-c3nc4ccc(F)cc4[nH]3)cc2)cc1  0.69 µM
23. CNC(=O)c1cncc(/C=C/c2ccccc2S(N)(=O)=O)c1  0.69 µM
24. CC(C)(C)OC(=O)NCCc1cccc(-c2c[nH]c3ncc(-c4cccc(NS(C)(=O)=O)c4)cc23)c1  0.68 µM
25. O=C(/C=C/c1ccc(Cl)c(Cl)c1)NCCCCCN1CCC(NC(=O)c2ccc([N+](=O)[O-])cc2)CC1  0.67 µM
26. CN(CCN)Cc1ccc(-c2ccc(-c3nc4ccc(C(F)(F)F)cc4[nH]3)s2)cc1  0.61 µM
27. O=C(Nc1ccc(Cn2ncc(N3CCNCC3)c(Cl)c2=O)cc1)Nc1ccc(-c2ccccc2)cc1  0.59 µM
28. COC(=O)c1cccc(CNCc2ccc(-c3ccc(-c4nc5ccc(F)cc5[nH]4)s3)cc2)c1  0.59 µM
29. Cc1cc(N(CCO)CCCN2CCCCC2)nc(Nc2ccc(Cl)cc2)n1  0.55 µM
30. CCOc1ccccc1CCNC(C)Cc1ccc(C(=O)Nc2ccc(CC(C)NCCc3cccc(Cl)c3)cc2)cc1 (stereo unspecified)  0.54 µM
31. COc1ccc2ncc(F)c([C@@H](O)CN3CCC(NCc4ccc5c(c4)NCCS5)CC3)c2n1  0.5 µM
32. Cc1[nH]c(C)c(-c2ccc(-c3ccc(OCC(F)(F)F)cc3)nc2)c(=O)c1Cl  0.39 µM
33. O=C(NC1CCN(Cc2ccccc2)CC1)c1ccc(-c2nc3cc(Cl)c(F)cc3[nH]2)s1  0.31 µM
34. N#Cc1cccc(NC(=O)Nc2ccc(-c3cccc(-c4nc5ccc(F)cc5[nH]4)c3)cc2)c1  0.27 µM
35. COc1ccc2c(=O)ccn(CCN3CCC(NCc4ccc5c(n4)NC(=O)CS5)CC3)c2c1  0.23 µM
36. COc1ccc(N2CCN(CCCCNC(=O)c3ccc(NC(=O)c4cc(C(F)(F)F)cc(C(F)(F)F)c4)cc3)CC2)cc1OC  0.22 µM
37. COc1ccc2c(NN=Cc3cccc(F)c3)ccnc2c1  0.21 µM
38. CC[C@H]1CN2CC[C@H]1C[C@H]2[C@H](O)c1cc(-c2cccc(C)c2)nc2ccc(OC)cc12  0.16 µM
39. O=C(/C=C/c1ccc(Cl)c(Cl)c1)N1CCC(CCN2CCC(c3c[nH]c4cnccc34)CC2)CC1  0.12 µM
40. FC(F)(F)c1ccc2nc(-c3ccc(-c4cccc(CN5CCN(c6ccncc6)CC5)c4)cc3)[nH]c2c1  0.12 µM
41. CCNCc1ccc(-c2cc3ncnc(Nc4ccc(OCc5cccc(F)c5)c(Cl)c4)c3s2)[nH]1  0.11 µM
42. O=C(N[C@@H](CC1CCCCC1)C(=O)NC1CCCCCC1)c1ccc(O)c(-c2ccc(Cl)c(Cl)c2)c1  0.1 µM
43. OCc1ccc(-c2cncc(Nc3ccc(F)c(Cl)c3)c2)cc1  0.09 µM
44. CCCc1cc(C)ccc1OCCCON1C(NC(=O)OCC)=NC(NC(=O)OCC)=NC1(C)C  0.04 µM
45. CC[C@H]1CN2CC[C@H]1C[C@H]2[C@H](O)c1cc(N2CCCC2)nc2ccc(OC)cc12  0.04 µM
46. CCc1cn(C)c2c(N3CCCC3=O)cc(C(=O)N[C@@H](Cc3ccccc3)[C@H](O)CNC(C)(C)c3cccc(OC)c3)cc12  0.04 µM
